Test results from patent US4175081A, “5-Substituted thiadiazole ureas” (priority 1977, dated 1979).

Tests used:
[1] = tested on: Turnip (TP); test: Post-emergence herbicide test; format: in vivo, Brassica sp.; details: Brassica rapa, post-emergence, 336 h, two weeks after treatment
Method in brief: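 A greenhouse post-emergence herbicide test on turnip. Seeds were sown on the surface of potting soil in 3' plastic pots, lightly covered with screened soil and watered from below. Planting was timed so seedlings had 1 or 2 true leaves above the cotyledons at spraying, done in a hood with a fixed nozzle. Control or injury was scored by eye after two weeks.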

[2] = tested on: Bean (BN); test: Pre-emergence herbicide test; format: in vivo, Phaseolus vulgaris var. Black Valentine; details: Phaseolus vulgaris, 336 h, two weeks after treatment
Method in brief: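 Visual injury/control ratings were taken two weeks post-spray on sub-irrigated Phaseolus vulgaris var. Black Valentine. Pots were sown a day before treatment. Pre-emergence spray delivered 8 lbs actual compound per acre (or 4 lbs/acre) at 38 gallons per acre.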

[3] = tested on: Amaranth pigweed (PW); test: Post-emergence herbicide test; format: in vivo, Amaranthus retroflexus; details: 336 h, two weeks after treatment
Method in brief: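 Visual injury or control ratings were made two weeks after spraying, with greenhouse watering by sub-irrigation only. Treatment was post-emergence, when pigweed seedlings had 1 or 2 true leaves, at 8 lbs active compound per acre (4 lbs/acre formulations also made) in a 38 gallons-per-acre spray volume.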

[4] = tested on: Crabgrass (CG); test: Pre-emergence herbicide test; format: in vivo, Digitaria sanquinalis; details: Digitaria sanguinalis, pre-emergence, 336 h, two weeks after treatment
Method in brief: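 Crabgrass (Digitaria sanquinalis) was surface seeded in 3' plastic pots of potting soil, covered with screened soil, and watered by sub-irrigation in greenhouse trays. Pots were seeded one day before spraying in a hood with a moving belt and fixed nozzle. Plants stayed in the greenhouse on sub-irrigation, and pre-emergence control was rated visually two weeks after treatment.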

[5] = tested on: Corn (CN); test: Post-emergence herbicide test; format: in vivo; details: Zea mays, 336 h, two weeks after treatment
Method in brief: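 Greenhouse seedlings grown in potting soil and sprayed post-emergence at 8 lbs compound/acre (formulations also made for 4 lbs/acre) in 38 gallons/acre spray volume. Watering by sub-irrigation only. Injury or control rated visually two weeks after treatment.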

[6] = tested on: Barnyard grass (BG); test: Post-emergence herbicide test; format: in vivo; details: Echinochloa crus-galli, 336 h, two weeks after treatment
Method in brief: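 Greenhouse pot-grown barnyard grass seedlings sprayed post-emergence at 8 lbs active compound per acre (some at 4 lbs/acre) in 38 gallons per acre, then sub-irrigated. Injury or control rated visually two weeks after treatment.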

[7] = tested on: Johnson grass (JG); test: Pre-emergence herbicide test; format: in vivo, Sorgum helepense; details: Sorghum halepense, 336 h, two weeks after treatment
Method in brief: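 Visual injury or control rating two weeks post-treatment, after pre-emergence spray of 8 or 4 lbs active per acre (38 gal/acre) onto pots sown the previous day. Greenhouse watering by sub-irrigation only.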

[8] = tested on: Corn (CN); test: Pre-emergence herbicide test; format: in vivo; details: Zea mays, 336 h, two weeks after treatment
Method in brief: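 Visual injury/control ratings were made 2 weeks post-spray on corn pots seeded (4 seeds, seed-diameter depth) the day before treatment. Application was a belt-hood spray of 38 gal/acre delivering 8 lbs active per acre, with a 4 lbs/acre rate also formulated. Watering was by sub-irrigation throughout.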

[9] = tested on: Yellow foxtail grass (YF); test: Post-emergence herbicide test; format: in vivo, Setaria glauca; details: Setaria, 336 h, two weeks after treatment
Method in brief: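 Visual rating of injury/control made 2 weeks post-spray. Seedlings at a uniform growth stage in soil-filled pots received a hood spray of 8 lbs/acre active compound, 38 gallons/acre volume, with a 4 lbs/acre rate also formulated. Watering was by sub-irrigation only.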

[10] = tested on: Barnyard grass (BG); test: Pre-emergence herbicide test; format: in vivo; details: Echinochloa crus-galli, 336 h, two weeks after treatment
Method in brief: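 Greenhouse pre-emergence spray test: pots seeded one day before treatment received compound at rates of 8 or 4 lb/acre (38 gal/acre). Visual injury/control scores for Echinochloa crus-galli taken at two weeks, with watering by sub-irrigation only.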

[11] = tested on: Turnip (TP); test: Pre-emergence herbicide test; format: in vivo, Brassica sp.; details: Brassica rapa, pre-emergence, 336 h, two weeks after treatment
Method in brief: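 In this pre-emergence greenhouse test, turnip was seeded on the surface of potting soil in 3' plastic pots, lightly covered with screened soil, and watered from below. One day later the pots were sprayed in a belt-fed spray hood. Watering continued only by sub-irrigation, and percent control was visually scored two weeks after treatment.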

[12] = tested on: Bean (BN); test: Post-emergence herbicide test; format: in vivo, Phaseolus vulgaris var. Black Valentine; details: Phaseolus vulgaris, post-emergence, 336 h, two weeks after treatment
Method in brief: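 Bean seedlings (Phaseolus vulgaris var. Black Valentine) were grown in potting soil in 3' pots until the primary leaves expanded. They were then sprayed under a hood with a removable belt and fixed nozzle, using 50 ml formulations. Afterward they were returned to the greenhouse and watered only by sub-irrigation. Percent control was judged visually two weeks after treatment.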

[13] = tested on: Cotton (CT); test: Pre-emergence herbicide test; format: in vivo, Gossypium hirsutum var. DPL smooth leaf; details: Gossypium hirsutum, 336 h, two weeks after treatment
Method in brief: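 Visual injury/control ratings were taken at two weeks post-spray. Pots seeded a day earlier received compound pre-emergence at 8 lbs/acre, or 4 lbs/acre, in a 38 gallon/acre spray volume, and were then held in the greenhouse, watered only from below.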

[14] = tested on: Amaranth pigweed (PW); test: Pre-emergence herbicide test; format: in vivo, Amaranthus retroflexus; details: 336 h, two weeks after treatment
Method in brief: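 Visual injury or control ratings were made at two weeks on pre-emergence pots, sub-irrigated in the greenhouse. Seeds were sown a day before a hood spray delivering 8 lbs/acre (or 4 lbs/acre) of compound in 38 gallons per acre.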

[15] = tested on: Cotton (CT); test: Post-emergence herbicide test; format: in vivo, Gossypium hirsutum var. DPL smooth leaf; details: Gossypium hirsutum, post-emergence, 336 h, two weeks after treatment
Method in brief: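 This greenhouse post-emergence test measured how well spray treatments controlled cotton. Seedlings of Gossypium hirsutum var. DPL smooth leaf, with expanded cotyledons and a first true leaf 1' in length, were sprayed with 50 ml formulations in a belt-fed spray hood. They were then returned to the greenhouse and watered only by sub-irrigation. Injury was scored visually as % control after two weeks.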

[16] = tested on: Crabgrass (CG); test: Post-emergence herbicide test; format: in vivo, Digitaria sanquinalis; details: Digitaria sanguinalis, post-emergence, 336 h, two weeks after treatment
Method in brief: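 Crabgrass (Digitaria sanquinalis) was surface seeded individually in 3' plastic pots of potting soil, covered with screened soil, and watered by sub-irrigation in greenhouse trays. Planting was staggered so seedlings reached the target stage together. Post-emergence sprays were applied in a hood with a removable belt and fixed nozzle, and control was visually rated two weeks after treatment.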

[17] = tested on: Johnson grass (JG); test: Post-emergence herbicide test; format: in vivo, Sorgum helepense; details: Sorghum halepense, 336 h, two weeks after treatment
Method in brief: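 Visual injury or control scores taken 2 weeks after a post-emergence spray of pot-grown plants. Application was 8 lbs/acre (or 4 lbs/acre) in 38 gal/acre. Plants were held in the greenhouse with sub-irrigation only.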

[18] = tested on: Yellow foxtail grass (YF); test: Pre-emergence herbicide test; format: in vivo, Setaria glauca; details: Setaria, 336 h, two weeks after treatment
Method in brief: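 Visual rating of injury/control made two weeks after a pre-emergence spray of 8 or 4 lbs active per acre (38 gal/acre) onto pots seeded the previous day. Greenhouse watering by sub-irrigation only.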

For `CNC(=O)N(C)c1nnc(C(C)(C)C)s1` [Example 42], the pest or weed control at 2241.7 g/ha ([1]; 2 lb/acre) was 100%, the pest or weed control at 4483.4 g/ha ([1]; 4 lb/acre) was 100% and the pest or weed control at 8966.8 g/ha ([1]; 8 lb/acre) was 100%. The pest or weed control at 2241.7 g/ha ([2]; 2 lb/acre) was 40%, the pest or weed control at 4483.4 g/ha ([2]; 4 lb/acre) was 90% and the pest or weed control at 8966.8 g/ha ([2]; 8 lb/acre) was 100%. For the same compound, the pest or weed control at 2241.7 g/ha ([3]; 2 lb/acre) was 100%, the pest or weed control at 4483.4 g/ha ([3]; 4 lb/acre) was 100% and the pest or weed control at 8966.8 g/ha ([3]; 8 lb/acre) was 100%. For the same compound, the pest or weed control ([4]; 2 lb/acre) was 90%, the pest or weed control at 4483.4 g/ha ([4]; 4 lb/acre) was 90% and the pest or weed control at 8966.8 g/ha ([4]; 8 lb/acre) was 90%. The pest or weed control ([5]; 2 lb/acre) was 70%, the pest or weed control at 4483.4 g/ha ([5]; 4 lb/acre) was 70% and the pest or weed control at 8966.8 g/ha ([5]; 8 lb/acre) was 100%. It also gave a pest or weed control at 2241.7 g/ha ([6]; 2 lb/acre) of 90%, a pest or weed control at 4483.4 g/ha ([6]; 4 lb/acre) of 90% and a pest or weed control at 8966.8 g/ha ([6]; 8 lb/acre) of 100%. It also gave a pest or weed control at 2241.7 g/ha ([7]; 2 lb/acre) of 70%, a pest or weed control at 4483.4 g/ha ([7]; 4 lb/acre) of 90% and a pest or weed control at 8966.8 g/ha ([7]; 8 lb/acre) of 100%. The pest or weed control at 2241.7 g/ha ([8]; 2 lb/acre) was 0%, the pest or weed control at 4483.4 g/ha ([8]; 4 lb/acre) was 60% and the pest or weed control at 8966.8 g/ha ([8]; 8 lb/acre) was 90%. For the same compound, the pest or weed control ([9]; 2 lb/acre) was 90%, the pest or weed control at 4483.4 g/ha ([9]; 4 lb/acre) was 90% and the pest or weed control at 8966.8 g/ha ([9]; 8 lb/acre) was 100%. It also gave a pest or weed control at 2241.7 g/ha ([10]; 2 lb/acre) of 80%, a pest or weed control at 4483.4 g/ha ([10]; 4 lb/acre) of 90% and a pest or weed control at 8966.8 g/ha ([10]; 8 lb/acre) of 90%. For the same compound, the pest or weed control at 2241.7 g/ha ([11]; 2 lb/acre) was 100%, the pest or weed control at 4483.4 g/ha ([11]; 4 lb/acre) was 90% and the pest or weed control at 8966.8 g/ha ([11]; 8 lb/acre) was 100%. The pest or weed control at 2241.7 g/ha ([12]; 2 lb/acre) was 80%, the pest or weed control at 4483.4 g/ha ([12]; 4 lb/acre) was 100% and the pest or weed control at 8966.8 g/ha ([12]; 8 lb/acre) was 100%. The pest or weed control at 2241.7 g/ha ([13]; 2 lb/acre) was 30%, the pest or weed control at 4483.4 g/ha ([13]; 4 lb/acre) was 70% and the pest or weed control at 8966.8 g/ha ([13]; 8 lb/acre) was 90%. For the same compound, the pest or weed control at 2241.7 g/ha ([14]; 2 lb/acre) was 100%, the pest or weed control at 4483.4 g/ha ([14]; 4 lb/acre) was 100% and the pest or weed control at 8966.8 g/ha ([14]; 8 lb/acre) was 100%. The pest or weed control at 2241.7 g/ha ([15]; 2 lb/acre) was 100%, the pest or weed control at 4483.4 g/ha ([15]; 4 lb/acre) was 100% and the pest or weed control at 8966.8 g/ha ([15]; 8 lb/acre) was 100%. The pest or weed control ([16]; 2 lb/acre) was 40%, the pest or weed control at 4483.4 g/ha ([16]; 4 lb/acre) was 70% and the pest or weed control at 8966.8 g/ha ([16]; 8 lb/acre) was 100%. For the same compound, the pest or weed control ([17]; 2 lb/acre) was 70%, the pest or weed control at 4483.4 g/ha ([17]; 4 lb/acre) was 90% and the pest or weed control at 8966.8 g/ha ([17]; 8 lb/acre) was 100%. It also gave a pest or weed control at 2241.7 g/ha ([18]; 2 lb/acre) of 90%, a pest or weed control at 4483.4 g/ha ([18]; 4 lb/acre) of 80% and a pest or weed control at 8966.8 g/ha ([18]; 8 lb/acre) of 90%.
